# Assay results from ChEMBL document CHEMBL1201862, “PubChem BioAssay data set” (2004).
# Several values for one entry are separate records, joined by “and”; a condition that tells them apart may be missing. Identical values can stand only once. Activity calls are given as the source filed them.
# What was measured:
# Troponin, cardiac muscle = Troponin, cardiac muscle (Homo sapiens, UniProt P19429+P45379+P63316); assay: Fluorescence-based biochemical high throughput dose response assay for activators of the calcium sensitivity of cardiac Regulated Thin Filaments (RTF). [Related pubchem assays (depositor defined):AID493008, AID493018, AID504382, AID504383]; format: protein-complex assay
# Coagulation factor XII = target: T1, Coagulation factor XII (Homo sapiens, UniProt P00748); format: functional;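 note: activated factor XIIa alpha cleaving a fluorogenic AMC peptide substrate; inhibitor potency from loss of enzyme activity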
# T1 sequence (P00748 whole entry): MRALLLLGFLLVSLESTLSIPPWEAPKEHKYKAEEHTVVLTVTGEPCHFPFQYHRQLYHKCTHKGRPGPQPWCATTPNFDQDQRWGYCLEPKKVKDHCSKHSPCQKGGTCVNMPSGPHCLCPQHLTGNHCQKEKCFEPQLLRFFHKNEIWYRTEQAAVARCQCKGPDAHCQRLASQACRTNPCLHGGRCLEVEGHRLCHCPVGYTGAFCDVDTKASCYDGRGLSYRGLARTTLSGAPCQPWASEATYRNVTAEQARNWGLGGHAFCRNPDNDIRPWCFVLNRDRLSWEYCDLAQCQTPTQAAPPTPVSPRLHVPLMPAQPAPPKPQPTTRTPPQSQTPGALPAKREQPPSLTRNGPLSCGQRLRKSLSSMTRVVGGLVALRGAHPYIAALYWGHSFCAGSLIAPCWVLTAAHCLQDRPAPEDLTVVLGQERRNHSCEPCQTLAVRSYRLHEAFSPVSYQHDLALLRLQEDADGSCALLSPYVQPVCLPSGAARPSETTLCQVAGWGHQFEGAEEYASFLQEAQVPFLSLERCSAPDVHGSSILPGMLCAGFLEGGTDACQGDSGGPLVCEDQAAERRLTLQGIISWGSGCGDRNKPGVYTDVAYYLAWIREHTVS
# H9c2 = assay: cells; format: functional, cell-based; details: Rattus norvegicus, H9c2, Myocardium;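 note: confirmatory concentration-response retest of ultra-high-throughput screening hits for modulation of myocardial damage; cell death induced by hydrogen peroxide oxidative stress; compound pretreatment for 60 min then peroxide exposure for 2 h; potency is for protecting the cells against peroxide damage rather than for killing them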
# Melanocortin receptor 4 = Melanocortin receptor 4 (Homo sapiens, UniProt P32245); format: functional, cell-based;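 note: Cell-based assay with luminescence read-out, confirmatory dose-response testing for agonist activity of biased ligands at MC4R; human U2OS cells with tagged receptor and beta-arrestin; potency of agonists that increase receptor coupling to beta-arrestin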
# X-box-binding protein 1 = target: T2, X-box-binding protein 1 (Homo sapiens, UniProt P17861); format: functional, Cricetulus griseus;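 note: confirmatory dose-response counter-screen serving a CHOP assay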
# T2 sequence (P17861 whole entry): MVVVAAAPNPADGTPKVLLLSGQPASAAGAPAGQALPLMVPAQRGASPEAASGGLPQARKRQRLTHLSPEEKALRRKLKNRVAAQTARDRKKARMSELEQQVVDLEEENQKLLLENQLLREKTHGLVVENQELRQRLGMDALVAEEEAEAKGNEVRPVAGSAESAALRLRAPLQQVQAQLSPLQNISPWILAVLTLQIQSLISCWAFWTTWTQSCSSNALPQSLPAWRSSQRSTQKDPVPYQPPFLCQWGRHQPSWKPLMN
# Leucine aminopeptidase = target: T3, Leucine aminopeptidase (Plasmodium falciparum 3D7, UniProt Q8IL11); assay: P. falciparum M17LAP inhibitors, primary screen, biochemical, fluorogenic H-Leu-NHMec substrate, 1536-well (AID 1619); format: functional
# T3 sequence (Q8IL11 whole entry): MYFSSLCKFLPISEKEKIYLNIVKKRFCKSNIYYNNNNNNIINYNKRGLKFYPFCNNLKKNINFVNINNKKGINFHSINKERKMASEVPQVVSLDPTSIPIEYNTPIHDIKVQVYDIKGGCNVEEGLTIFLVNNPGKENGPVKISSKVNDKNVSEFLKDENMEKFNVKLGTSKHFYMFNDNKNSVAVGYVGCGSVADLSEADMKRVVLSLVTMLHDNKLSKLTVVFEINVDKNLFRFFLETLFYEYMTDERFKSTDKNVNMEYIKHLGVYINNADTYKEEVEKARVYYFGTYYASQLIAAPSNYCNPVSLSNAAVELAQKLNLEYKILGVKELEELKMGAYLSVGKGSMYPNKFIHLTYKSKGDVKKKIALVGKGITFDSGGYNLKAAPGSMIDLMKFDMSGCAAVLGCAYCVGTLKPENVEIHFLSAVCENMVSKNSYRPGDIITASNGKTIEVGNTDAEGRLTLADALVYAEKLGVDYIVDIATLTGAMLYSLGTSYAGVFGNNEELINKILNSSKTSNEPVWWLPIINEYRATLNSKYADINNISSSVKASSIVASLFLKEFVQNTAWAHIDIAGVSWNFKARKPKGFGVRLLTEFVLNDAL
# [1] = target: DNA dC->dU-editing enzyme APOBEC-3G (Homo sapiens, UniProt Q9HC16); assay: Dose Response confirmation of small molecule APOBEC3G DNA Deaminase Inhibitors via a fluorescence-based single-stranded DNA deaminase assay. [Related pubchem assays (depositor defined):AID493012, AID493028]; format: functional
# [2] = target: T4, Short transient receptor potential channel 4 (Mus musculus, UniProt Q9QUQ5); assay: calcium entry via TRPC4 opening agents – cell-based, HEK293 TRPC4/mu-opioid, Fluo-4 calcium, dose response (AID 434937); format: functional
# T4 sequence (Q9QUQ5 whole entry): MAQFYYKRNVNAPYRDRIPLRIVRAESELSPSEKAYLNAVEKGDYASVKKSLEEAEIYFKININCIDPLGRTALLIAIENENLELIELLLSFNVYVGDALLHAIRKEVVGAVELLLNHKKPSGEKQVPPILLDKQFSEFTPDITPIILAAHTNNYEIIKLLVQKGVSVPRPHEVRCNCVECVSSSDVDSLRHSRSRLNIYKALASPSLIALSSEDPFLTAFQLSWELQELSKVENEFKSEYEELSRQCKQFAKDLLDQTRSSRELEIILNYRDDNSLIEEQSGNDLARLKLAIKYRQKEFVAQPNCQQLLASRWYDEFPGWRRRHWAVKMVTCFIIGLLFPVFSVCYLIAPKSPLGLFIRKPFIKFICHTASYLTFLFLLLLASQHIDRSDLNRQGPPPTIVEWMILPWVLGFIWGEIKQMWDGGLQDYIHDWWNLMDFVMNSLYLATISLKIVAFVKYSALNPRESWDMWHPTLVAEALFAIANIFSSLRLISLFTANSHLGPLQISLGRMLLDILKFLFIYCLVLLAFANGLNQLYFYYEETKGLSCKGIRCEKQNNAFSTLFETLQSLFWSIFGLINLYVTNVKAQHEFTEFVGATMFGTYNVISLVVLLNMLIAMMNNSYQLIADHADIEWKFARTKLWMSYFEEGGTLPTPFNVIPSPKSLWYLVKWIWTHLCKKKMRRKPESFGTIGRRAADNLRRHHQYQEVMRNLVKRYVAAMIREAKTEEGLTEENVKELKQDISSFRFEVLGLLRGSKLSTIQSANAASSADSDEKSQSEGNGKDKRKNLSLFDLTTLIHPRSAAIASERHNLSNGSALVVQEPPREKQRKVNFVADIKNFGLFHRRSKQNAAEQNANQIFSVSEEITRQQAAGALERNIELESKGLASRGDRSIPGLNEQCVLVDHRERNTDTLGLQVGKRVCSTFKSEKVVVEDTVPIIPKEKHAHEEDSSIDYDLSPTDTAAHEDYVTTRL
# Cytochrome P450 2C19 = Cytochrome P450 2C19 (Homo sapiens, UniProt P33261); assay: Cytochrome panel assay with activity outcomes. Panel member name: p450-cyp2c19 Compounds with AC50 equal or less than 10 uM are considered active; format: functional; details: read-out: AC50
# Protein RecA = target: T5, Protein RecA (Mycobacterium tuberculosis, UniProt P9WHJ3); assay: Fluorescence Cell-Free Homogeneous Dose Retest to Identify Inhibitors of RecA-Intein Splicing Activity. [Related pubchem assays (depositor defined):AID2097, AID2223, AID489010, AID492950]; format: functional
# T5 sequence (P9WHJ3 whole entry): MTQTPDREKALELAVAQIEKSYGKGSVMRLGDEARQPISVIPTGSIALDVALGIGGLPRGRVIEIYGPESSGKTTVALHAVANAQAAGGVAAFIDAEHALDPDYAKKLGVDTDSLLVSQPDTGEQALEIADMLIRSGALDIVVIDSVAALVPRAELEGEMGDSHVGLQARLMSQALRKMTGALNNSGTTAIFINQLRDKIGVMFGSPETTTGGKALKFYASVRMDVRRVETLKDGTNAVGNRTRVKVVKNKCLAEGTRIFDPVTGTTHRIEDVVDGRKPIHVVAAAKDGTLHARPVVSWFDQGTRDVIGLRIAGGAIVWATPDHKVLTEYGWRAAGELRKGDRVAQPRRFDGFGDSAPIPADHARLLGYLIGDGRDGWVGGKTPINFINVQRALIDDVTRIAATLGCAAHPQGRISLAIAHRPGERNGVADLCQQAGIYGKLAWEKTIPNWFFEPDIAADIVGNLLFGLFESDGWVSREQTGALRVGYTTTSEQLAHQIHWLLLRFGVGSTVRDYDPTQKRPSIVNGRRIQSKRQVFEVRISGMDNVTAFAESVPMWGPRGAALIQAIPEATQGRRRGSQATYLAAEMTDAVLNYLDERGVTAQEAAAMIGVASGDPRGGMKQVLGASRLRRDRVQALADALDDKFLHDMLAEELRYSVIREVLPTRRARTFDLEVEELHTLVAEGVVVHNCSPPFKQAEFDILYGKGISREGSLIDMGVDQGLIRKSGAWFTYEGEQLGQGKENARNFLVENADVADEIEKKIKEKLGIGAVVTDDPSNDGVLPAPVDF
# [3] = target: T6, Replicative DNA helicase DnaB (Mycobacterium tuberculosis, UniProt P9WMR3); assay: DnaB intein splicing inhibitors, dose response, biochemical, cell-free fluorescence (AID 449749); format: functional
# T6 sequence (P9WMR3 whole entry): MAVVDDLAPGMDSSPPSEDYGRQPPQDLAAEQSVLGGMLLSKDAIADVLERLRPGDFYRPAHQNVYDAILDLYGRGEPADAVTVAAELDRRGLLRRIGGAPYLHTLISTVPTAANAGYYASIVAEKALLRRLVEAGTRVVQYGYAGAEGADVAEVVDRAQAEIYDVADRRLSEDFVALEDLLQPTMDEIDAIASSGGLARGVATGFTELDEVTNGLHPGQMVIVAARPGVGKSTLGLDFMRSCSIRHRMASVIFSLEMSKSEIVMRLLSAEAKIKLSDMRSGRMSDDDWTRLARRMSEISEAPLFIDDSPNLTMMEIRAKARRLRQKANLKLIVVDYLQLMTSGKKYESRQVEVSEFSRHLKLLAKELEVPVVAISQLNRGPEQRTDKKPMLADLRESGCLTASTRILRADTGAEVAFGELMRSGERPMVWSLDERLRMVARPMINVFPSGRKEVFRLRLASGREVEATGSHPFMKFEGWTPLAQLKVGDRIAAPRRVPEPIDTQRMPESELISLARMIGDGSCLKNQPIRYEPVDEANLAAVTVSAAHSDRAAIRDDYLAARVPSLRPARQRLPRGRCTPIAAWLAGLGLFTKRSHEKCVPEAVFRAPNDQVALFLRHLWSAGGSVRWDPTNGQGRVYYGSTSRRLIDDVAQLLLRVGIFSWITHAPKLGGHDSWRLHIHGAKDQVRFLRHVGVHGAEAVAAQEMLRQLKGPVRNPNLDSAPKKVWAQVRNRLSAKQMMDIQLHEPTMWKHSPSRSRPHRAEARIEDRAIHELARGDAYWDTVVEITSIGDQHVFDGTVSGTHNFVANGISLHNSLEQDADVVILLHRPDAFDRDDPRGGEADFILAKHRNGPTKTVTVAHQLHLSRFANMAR
# Cytochrome P450 1A2 = target: T7, Cytochrome P450 1A2 (Homo sapiens, UniProt P05177);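 note: PubChem cytochrome P450 panel assay, CYP1A2 panel member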
# T7 sequence (P05177 whole entry): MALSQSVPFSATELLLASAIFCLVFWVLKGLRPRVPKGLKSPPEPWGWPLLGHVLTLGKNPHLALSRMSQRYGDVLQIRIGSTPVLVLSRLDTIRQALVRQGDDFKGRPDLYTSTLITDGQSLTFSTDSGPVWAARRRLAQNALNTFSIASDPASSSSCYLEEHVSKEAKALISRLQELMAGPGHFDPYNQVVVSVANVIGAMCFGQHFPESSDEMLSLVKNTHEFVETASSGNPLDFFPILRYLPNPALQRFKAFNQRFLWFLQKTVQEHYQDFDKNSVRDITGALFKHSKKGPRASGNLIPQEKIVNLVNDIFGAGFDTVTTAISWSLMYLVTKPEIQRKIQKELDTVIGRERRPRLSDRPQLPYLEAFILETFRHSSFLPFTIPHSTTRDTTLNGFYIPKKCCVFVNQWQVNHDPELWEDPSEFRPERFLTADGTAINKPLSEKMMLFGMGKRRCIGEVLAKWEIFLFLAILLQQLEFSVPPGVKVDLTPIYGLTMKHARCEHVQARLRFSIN
# [4] = microbe, parasite or virus in culture; format: functional; details: Mycobacterium tuberculosis
structure (smiles),measurement,setting,value
COc1cccc(CC(NC(C)=O)C(=O)NC2CCN(c3nc(C)cc(C)c3C#N)CC2)c1OC (configuration not stated),EC50,"Troponin, cardiac muscle",> 71.5 µM (inactive)
COC(=O)C(C)Sc1nnc(Cc2cc(O)nc(O)n2)n1-c1ccc(Cl)cc1 (configuration not stated),IC50,Coagulation factor XII,> 50 µM (inactive)
COc1ccc(/C=N/NC(=O)c2cc(OC)c(OC)c(OC)c2)cc1CN1CCc2cc(OC)c(OC)cc2C1C (configuration not stated),EC50,"Troponin, cardiac muscle",> 71.5 µM (inactive)
same,IC50,H9c2,19.5 µM (active)
Cc1ccc2nc(Nc3ccc4[nH]c(O)nc4c3)c(-n3nc(C)cc3C)nc2c1,EC50,Melanocortin receptor 4,> 89.2 µM (inactive)
same,Absolute IC50 (XBP1),X-box-binding protein 1,10 µM
Cc1ccc(S(=O)(=O)NCCCCCC(=O)Nc2ccccc2C)cc1,EC50,"Troponin, cardiac muscle",> 71.5 µM (inactive)
CCOc1ccccc1N1C(=O)CC(Sc2n[nH]c(-c3ccccc3)n2)C1=O (configuration not stated),IC50,Leucine aminopeptidase,8.97 µM (active)
same,IC50,[1],9.92 µM (active)
Cc1nc2ccccc2n1C1CCN(Cc2nnnn2CCc2ccccc2)CC1,IC50,Coagulation factor XII,> 50 µM (inactive)
O=C1NCN(c2ccccc2)C12CCN(CCCC(c1ccc(F)cc1)c1ccc(F)cc1)CC2,EC50,[2],6.68 µM (active)
same,AC50,Cytochrome P450 2C19,7.94 µM (inconclusive) and 15.8 µM (inconclusive)
same,EC50,Protein RecA,20.2 µM (active)
same,AC50,[3],9.69 µM (active)
same,Absolute IC50 (XBP1),X-box-binding protein 1,10 µM
same,AC50,Cytochrome P450 1A2,12.6 µM (inconclusive)
same,CC50,[4],32.9 µM (active)
